Data from ChEMBL document CHEMBL1128628, “in vivo potent antimalarial 1,2,4-trioxanes: Synthesis and activity of 8-(-arylvinyl)-6,7,10-trioxaspiro[4,5]decanes and 3-(-arylvinyl)-1,2,5-trioxaspiro[5,5]undecanes against Plasmodium berghei in mice” (1995).
Calls of active or inactive are those of the source. The rule behind the calls is not given here.

Each compound was assayed on Mus musculus (assay: Evaluated for antimalarial activity against Plasmodium berghei in mice (Mus musculus) at 90 mg/kg; active).
Type: functional, organism-based
Parameters: dose 90 mg/kg

**Q.** Which Activity does the source give for `C=C(c1ccccc1)C1COC2(CCCC2)OO1` (stereo unspecified) here?
**A.** Active

**Q.** Which Activity does the source give for `C=C(c1ccc(OC)cc1)C1COC2(CCCC2)OO1` (stereo unspecified) here?
**A.** Active

**Q.** With `C=C(c1ccc(Cl)cc1)C1COC2(CCCCC2)OO1` (stereo unspecified) as the compound, how does the Activity read?
**A.** Active

**Q.** With `C=C(c1ccc(Cl)cc1)C1COC2(CCCC2)OO1` (stereo unspecified) as the compound, how does the Activity read?
**A.** Active

**Q.** `C=C(c1ccc(C)cc1)C1COC2(CCCC2)OO1` (stereo unspecified) was tested. Which Activity did it give?
**A.** Active

**Q.** For `C=C(c1ccc(F)cc1)C1COC2(CCCCC2)OO1` (stereo unspecified), which Activity is on record?
**A.** Active

**Q.** With `C=C(c1ccc(F)cc1)C1COC2(CCCC2)OO1` (stereo unspecified) as the compound, how does the Activity read?
**A.** Active

Each compound was assayed on Mus musculus (assay: Evaluated for antimalarial activity against Plasmodium berghei in mice (Mus musculus) at 90 mg/kg; inactive).
Type: functional, organism-based
Parameters: dose 90 mg/kg

**Q.** How did the Activity turn out when `C=C(c1ccc(OC)cc1)C1COC2(CCCCC2)OO1` (stereo unspecified) was run?
**A.** inactive

**Q.** With `C=C(c1ccccc1)C1(C)COC2(CCCC2)OO1` (stereo unspecified) as the compound, how does the Activity read?
**A.** inactive

**Q.** `C=C(c1ccccc1)C1(C)COC2(CCCCC2)OO1` (stereo unspecified) was tested. Which Activity did it give?
**A.** inactive

**Q.** `C=C(c1ccc(Cl)cc1)C1(C)COC2(CCCC2)OO1` (stereo unspecified) was tested. Which Activity did it give?
**A.** inactive

**Q.** Which Activity does the source give for `C=C(c1ccccc1)C1COC2(CCCCC2)OO1` (stereo unspecified) here?
**A.** inactive

**Q.** How did the Activity turn out when `C=C(c1ccc(Cl)cc1)C1(C)COC2(CCCCC2)OO1` (stereo unspecified) was run?
**A.** inactive

**Q.** `C=C(c1ccc(C)cc1)C1COC2(CCCCC2)OO1` (stereo unspecified) was tested. Which Activity did it give?
**A.** inactive

These compounds were tested on Mus musculus (assay: Evaluated for antimalarial activity against Plasmodium berghei in mice (Mus musculus) at 30 mg/kg on day 6).
Type: functional

**Q.** With `C=C(c1ccccc1)C1COC2(CCCC2)OO1` (stereo unspecified) as the compound, how does the Suppression read?
**A.** >90%

**Q.** For `C=C(c1ccc(Cl)cc1)C1COC2(CCCC2)OO1` (stereo unspecified), which Suppression is on record?
**A.** >90%
